In PubChem BioAssay (NCI):
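Exposure lasted 48 hours, with cells grown in 96-well plates and compounds tested at five concentrations. GI50 = concentration required for 50% inhibition of growth. TGI: total growth inhibition.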

What was measured:
Assay in all cases: NCI tumour cell line growth inhibition, 48 h
786-0 renal = system: 786-0 renal
A498 renal = system: A498 renal
A549 NSCLC = system: A549 NSCLC
ACHN renal = system: ACHN renal
BT-549 breast = system: BT-549 breast
CAKI-1 renal = system: CAKI-1 renal
CCRF-CEM leukemia = system: CCRF-CEM leukemia
COLO 205 colon = system: COLO 205 colon
DU-145 prostate = system: DU-145 prostate
HCC-2998 colon = system: HCC-2998 colon
HCT-116 colon = system: HCT-116 colon
HCT-15 colon = system: HCT-15 colon
HL-60(TB) leukemia = system: HL-60(TB) leukemia
HOP-62 NSCLC = system: HOP-62 NSCLC
HOP-92 NSCLC = system: HOP-92 NSCLC
HS 578T breast = system: HS 578T breast
HT29 colon = system: HT29 colon
IGROV1 ovarian = system: IGROV1 ovarian
K-562 leukemia = system: K-562 leukemia
KM12 colon = system: KM12 colon
LOX IMVI melanoma = system: LOX IMVI melanoma
M14 melanoma = system: M14 melanoma
MALME-3M melanoma = system: MALME-3M melanoma
MCF7 breast = system: MCF7 breast
MDA-MB-231 breast = system: MDA-MB-231 breast
MDA-MB-435 = system: MDA-MB-435
MOLT-4 leukemia = system: MOLT-4 leukemia
NCI-H226 lung = system: NCI-H226 lung
NCI-H23 lung = system: NCI-H23 lung
NCI-H460 lung = system: NCI-H460 lung
NCI-H522 lung = system: NCI-H522 lung
NCI/ADR-RES ovarian = system: NCI/ADR-RES ovarian
OVCAR-3 ovarian = system: OVCAR-3 ovarian
OVCAR-4 ovarian = system: OVCAR-4 ovarian
OVCAR-5 ovarian = system: OVCAR-5 ovarian
OVCAR-8 ovarian = system: OVCAR-8 ovarian
PC-3 prostate = system: PC-3 prostate
RPMI-8226 leukemia = system: RPMI-8226 leukemia
RXF 393 renal = system: RXF 393 renal
SF-268 CNS = system: SF-268 CNS
SF-295 CNS = system: SF-295 CNS
SF-539 CNS = system: SF-539 CNS
SK-MEL-2 melanoma = system: SK-MEL-2 melanoma
SK-MEL-28 melanoma = system: SK-MEL-28 melanoma
SK-MEL-5 melanoma = system: SK-MEL-5 melanoma
SK-OV-3 ovarian = system: SK-OV-3 ovarian
SN12C renal = system: SN12C renal
SNB-19 CNS = system: SNB-19 CNS
SNB-75 CNS = system: SNB-75 CNS
SR leukemia = system: SR leukemia
SW-620 colon = system: SW-620 colon
T-47D breast = system: T-47D breast
U251 CNS = system: U251 CNS
UACC-257 melanoma = system: UACC-257 melanoma
UACC-62 melanoma = system: UACC-62 melanoma
UO-31 renal = system: UO-31 renal

O=C1Nc2ccccc2/C1=C/C(=N/c1nnc(-c2ccccc2)s1)c1ccccc1 was tested. Which GI50 (786-0 renal) did it give?
The GI50 was 1.79 µM.

And the TGI (786-0 renal)?
The TGI was 3.55 µM.

What about the GI50 (A498 renal) of the same compound?
Its GI50 is 6.78 µM.

And the TGI (A498 renal)?
The TGI was 21 µM.

And the GI50 (A549 NSCLC)?
Its GI50 is 8.62 µM.

And the TGI (A549 NSCLC)?
The TGI was 23.6 µM.

What about the GI50 (ACHN renal) of the same compound?
Its GI50 is 1.56 µM.

And the TGI (ACHN renal)?
The TGI was 3 µM.

What about the GI50 (BT-549 breast) of the same compound?
The GI50 was 1.91 µM.

And the TGI (BT-549 breast)?
Its TGI is 3.96 µM.

What about the GI50 (CAKI-1 renal) of the same compound?
Its GI50 is 2.58 µM.

What about the TGI (CAKI-1 renal) of the same compound?
The TGI was 10.3 µM.

What about the GI50 (CCRF-CEM leukemia) of the same compound?
The GI50 was 1.47 µM.

What about the TGI (CCRF-CEM leukemia) of the same compound?
The TGI was 4.72 µM.

What about the GI50 (COLO 205 colon) of the same compound?
Its GI50 is 1.68 µM.

And the TGI (COLO 205 colon)?
The TGI was 3.22 µM.

And the GI50 (DU-145 prostate)?
The GI50 was 2.7 µM.

What about the TGI (DU-145 prostate) of the same compound?
The TGI was 7.77 µM.

What about the GI50 (HCC-2998 colon) of the same compound?
Its GI50 is 8.58 µM.

What about the TGI (HCC-2998 colon) of the same compound?
The TGI was 21.5 µM.

And the GI50 (HCT-116 colon)?
The GI50 was 1.34 µM.

What about the TGI (HCT-116 colon) of the same compound?
Its TGI is 2.92 µM.

What about the GI50 (HCT-15 colon) of the same compound?
The GI50 was 1.63 µM.

What about the TGI (HCT-15 colon) of the same compound?
The TGI was 4.01 µM.

What about the GI50 (HL-60(TB) leukemia) of the same compound?
Its GI50 is 1.82 µM.

What about the TGI (HL-60(TB) leukemia) of the same compound?
The TGI was 5.33 µM.

And the GI50 (HOP-62 NSCLC)?
Its GI50 is 6.05 µM.

And the TGI (HOP-62 NSCLC)?
The TGI was 18 µM.

What about the GI50 (HOP-92 NSCLC) of the same compound?
The GI50 was 0.987 µM.

What about the TGI (HOP-92 NSCLC) of the same compound?
The TGI was 2.93 µM.

What about the GI50 (HS 578T breast) of the same compound?
The GI50 was 2.71 µM.

What about the TGI (HS 578T breast) of the same compound?
Its TGI is 11.8 µM.

And the GI50 (HT29 colon)?
The GI50 was 2.1 µM.

What about the TGI (HT29 colon) of the same compound?
Its TGI is 5.37 µM.

What about the GI50 (IGROV1 ovarian) of the same compound?
The GI50 was 2.13 µM.

And the TGI (IGROV1 ovarian)?
Its TGI is 5.94 µM.

And the GI50 (K-562 leukemia)?
The GI50 was 1.69 µM.

What about the TGI (K-562 leukemia) of the same compound?
Its TGI is 11 µM.

And the GI50 (KM12 colon)?
Its GI50 is 5.5 µM.

What about the TGI (KM12 colon) of the same compound?
The TGI was 17.9 µM.

And the GI50 (LOX IMVI melanoma)?
Its GI50 is 1.61 µM.

And the TGI (LOX IMVI melanoma)?
Its TGI is 3.21 µM.

And the GI50 (M14 melanoma)?
The GI50 was 3.87 µM.

What about the TGI (M14 melanoma) of the same compound?
The TGI was 14.3 µM.

What about the GI50 (MALME-3M melanoma) of the same compound?
Its GI50 is 2.17 µM.

And the TGI (MALME-3M melanoma)?
Its TGI is 6.67 µM.

What about the GI50 (MCF7 breast) of the same compound?
Its GI50 is 2.28 µM.

What about the TGI (MCF7 breast) of the same compound?
The TGI was 11.3 µM.

What about the GI50 (MDA-MB-231 breast) of the same compound?
Its GI50 is 1.92 µM.

What about the TGI (MDA-MB-231 breast) of the same compound?
Its TGI is 4.95 µM.

And the GI50 (MDA-MB-435)?
Its GI50 is 2.96 µM.

What about the TGI (MDA-MB-435) of the same compound?
The TGI was 9.32 µM.

And the GI50 (MOLT-4 leukemia)?
Its GI50 is 2.23 µM.

What about the TGI (MOLT-4 leukemia) of the same compound?
The TGI was 6.54 µM.

What about the GI50 (NCI-H226 lung) of the same compound?
The GI50 was 2.5 µM.

What about the TGI (NCI-H226 lung) of the same compound?
Its TGI is 8.28 µM.

What about the GI50 (NCI-H23 lung) of the same compound?
The GI50 was 2.88 µM.

And the TGI (NCI-H23 lung)?
Its TGI is 11 µM.

What about the GI50 (NCI-H460 lung) of the same compound?
Its GI50 is 7.04 µM.

What about the TGI (NCI-H460 lung) of the same compound?
Its TGI is 21.9 µM.

And the GI50 (NCI-H522 lung)?
Its GI50 is 0.449 µM.

What about the TGI (NCI-H522 lung) of the same compound?
Its TGI is 1.06 µM.

What about the GI50 (NCI/ADR-RES ovarian) of the same compound?
The GI50 was 3.1 µM.

And the TGI (NCI/ADR-RES ovarian)?
Its TGI is 10.3 µM.

What about the GI50 (OVCAR-3 ovarian) of the same compound?
Its GI50 is 1.38 µM.

And the TGI (OVCAR-3 ovarian)?
The TGI was 2.8 µM.

What about the GI50 (OVCAR-4 ovarian) of the same compound?
The GI50 was 2.63 µM.

What about the TGI (OVCAR-4 ovarian) of the same compound?
Its TGI is 12.2 µM.

And the GI50 (OVCAR-5 ovarian)?
Its GI50 is 2.09 µM.

And the TGI (OVCAR-5 ovarian)?
The TGI was 6.63 µM.

And the GI50 (OVCAR-8 ovarian)?
The GI50 was 2.77 µM.

What about the TGI (OVCAR-8 ovarian) of the same compound?
Its TGI is 9.35 µM.

And the GI50 (PC-3 prostate)?
The GI50 was 2 µM.

What about the TGI (PC-3 prostate) of the same compound?
The TGI was 5.52 µM.

What about the GI50 (RPMI-8226 leukemia) of the same compound?
Its GI50 is 2.14 µM.

And the TGI (RPMI-8226 leukemia)?
Its TGI is 5.21 µM.

And the GI50 (RXF 393 renal)?
Its GI50 is 1.51 µM.

What about the TGI (RXF 393 renal) of the same compound?
Its TGI is 3.1 µM.

What about the GI50 (SF-268 CNS) of the same compound?
Its GI50 is 4.3 µM.

And the TGI (SF-268 CNS)?
The TGI was 16.1 µM.

And the GI50 (SF-295 CNS)?
The GI50 was 17.1 µM.

What about the TGI (SF-295 CNS) of the same compound?
The TGI was 32.7 µM.

What about the GI50 (SF-539 CNS) of the same compound?
The GI50 was 1.99 µM.

And the TGI (SF-539 CNS)?
Its TGI is 4.64 µM.

And the GI50 (SK-MEL-2 melanoma)?
Its GI50 is 2.55 µM.

And the TGI (SK-MEL-2 melanoma)?
Its TGI is 7.07 µM.

What about the GI50 (SK-MEL-28 melanoma) of the same compound?
The GI50 was 2.68 µM.

What about the TGI (SK-MEL-28 melanoma) of the same compound?
The TGI was 6.93 µM.

What about the GI50 (SK-MEL-5 melanoma) of the same compound?
The GI50 was 6.57 µM.

And the TGI (SK-MEL-5 melanoma)?
The TGI was 17.9 µM.

And the GI50 (SK-OV-3 ovarian)?
The GI50 was 6.62 µM.

And the TGI (SK-OV-3 ovarian)?
The TGI was 19.1 µM.

What about the GI50 (SN12C renal) of the same compound?
Its GI50 is 2.07 µM.

What about the TGI (SN12C renal) of the same compound?
Its TGI is 5.69 µM.

And the GI50 (SNB-19 CNS)?
The GI50 was 12.3 µM.

What about the TGI (SNB-19 CNS) of the same compound?
The TGI was 25 µM.

What about the GI50 (SNB-75 CNS) of the same compound?
The GI50 was 3.7 µM.

What about the TGI (SNB-75 CNS) of the same compound?
Its TGI is 16.9 µM.

What about the GI50 (SR leukemia) of the same compound?
The GI50 was 0.957 µM.

And the TGI (SR leukemia)?
Its TGI is 6.76 µM.

And the GI50 (SW-620 colon)?
The GI50 was 1.2 µM.

And the TGI (SW-620 colon)?
The TGI was 2.74 µM.

And the GI50 (T-47D breast)?
Its GI50 is 2.45 µM.

And the TGI (T-47D breast)?
Its TGI is 10.1 µM.

And the GI50 (U251 CNS)?
The GI50 was 4.91 µM.

And the TGI (U251 CNS)?
Its TGI is 17.7 µM.

And the GI50 (UACC-257 melanoma)?
The GI50 was 3.81 µM.

And the TGI (UACC-257 melanoma)?
Its TGI is 10.6 µM.

What about the GI50 (UACC-62 melanoma) of the same compound?
The GI50 was 1.72 µM.

What about the TGI (UACC-62 melanoma) of the same compound?
Its TGI is 3.74 µM.

And the GI50 (UO-31 renal)?
The GI50 was 1.45 µM.

And the TGI (UO-31 renal)?
Its TGI is 3.31 µM.
